Reference: patent US20230111310A1, “CARBOXYLIC ACID DERIVATIVE-SUBSTITUTED IMINO ARYL COMPOUND, PREPARATION METHOD THEREFOR, HERBICIDAL COMPOSITION AND USE THEREOF” (Qingdao Kingagroot Chemical Compound Co., Ltd., priority 2020, published 2023)
Where two headings read alike, the source gives them in different places.

Columns and labels:
Test in all cases: Composition activity test, post-emergence foliage spray
Assay type in all cases: in vivo
Veronica didyma Tenore = details: Veronica didyma Tenore, foliage
Method: (§1) are as follows, and the others were purchased from reagent companies. The technical materials were all dissolved in acetone and diluted with an aqueous solution containing 0.1% emulsifier Tween-80. The dilution is performed as required.
(§2) Weeds were cultivated by a pot culture method. […] Full and uniform weed seeds were selected, soaked in warm water at 25° C. for 6 hours, and germinated in a 28° C. biochemical incubator (darkness). The weed seeds that had just germinated were evenly placed on the surface of the soil and then covered with 0.5-1 cm soil according to the sizes of seeds.
(§3) The culture was carried out in a controllable sunlight greenhouse at 20 to 30° C., in natural light, and relative humidity of 57% to 72%.
(§4) 3 pots with 20 weed seeds per pot were treated in one treatment with 4 replications per treatment.
(§5) The agents were used for only once in the experiment. In the stage of weeds with 1.5-2 leaves, the weeds were thinned out to maintain 10 weeds per pot and 30 weeds for each treatment, then continued to be cultured to Conyza Canadensis 10 cm in height, other weeds 3-4 leaves stage and treated.
(§6) The well-cultured weeds were evenly placed on a platform with an area of 0.5 m^2, and a solution of agents was sprayed on the stems and leaves thereof by the 3WP-2000-type walking spray tower at a dosage of 450 kg/ha and at a spray pressure of 0.3 MPa. After all the solution was sprayed, the valve was closed. After 30 seconds, the door of the spray tower was opened, and the nutritional bowl was taken out. Then the valve was opened, and the spray tube was cleaned by spraying 50 ml of water. After the treatment, the weeds were routinely cultured in a greenhouse.
(§7) A method for investigating absolute number was employed, wherein whole seedlings of survival weeds were cut off with a blade along the soil surface, and the fresh weight of the weeds was weighed with an analytical balance. For dead weeds, the fresh weight thereof was zero.
(§8) The investigation was performed after 21 days of the treatment for only once.
(§9) An optimum ratio of the two active ingredients was determined by the actual control effect, characteristics of herbicides, and balance of a corresponding formula. Wherein, in the formula, X represented the fresh weight inhibition rate of the active ingredient A in a dosage of P, and Y represented the fresh weight inhibition rate of the active ingredient B in a dosage of Q. The statistical results were shown in the table 6.

Lithospermum arvense = tested on: Lithospermum arvense
Method: as §1, §2, §3, §4, §5, §6, §7, §8, §9

Eclipta prostrate = details: foliar, read-out: Control effect (%) of B applied alone (B)
Method: as §1, §2, §3, §4, §5, §6, §7, §8, §9

## COc1c(Cl)ccc(-c2nc(C(=O)OCc3ccccc3)c(Cl)c(N)c2F)c1F [florpyrauxifen benzyl]
Veronica didyma Tenore; B 15 g a.i./ha
  Control effect (%) of B applied alone (B): 50.3%

## C#CCN1C(=O)COc2cc(F)c(N3C(=O)C4=C(CCCC4)C3=O)cc21 [flumioxazin]
Lithospermum arvense; B 7.5 g a.i./ha
  Control effect (%) of B applied alone (B): 29.4%

## Nc1c(Cl)c(F)nc(OCC(=O)O)c1Cl [fluroxypyr]
Veronica didyma Tenore; Veronica polita, foliar, B 60 g a.i./ha, read-out: Control effect (%) of B applied alone (B)
  pest or weed control at 60 g/ha: 39.3%

## COC(=O)c1nc(-c2ccc(Cl)c(OC)c2F)cc(N)c1Cl [halauxifen-methyl]
Veronica didyma Tenore; B 3 g a.i./ha
  Control effect (%) of B applied alone (B): 35.6%

## CC(C)c1ccc(NC(=O)N(C)C)cc1 [isoproturon]
Eclipta prostrate; Eclipta prostrate, foliage, B 225 g a.i./ha
  pest or weed control at 225 g/ha: 33.9%

## CSc1nnc(C(C)(C)C)c(=O)n1N [metribuzin]
Eclipta prostrate; Eclipta prostrate, foliage, B 15 g a.i./ha
  pest or weed control at 15 g/ha: 36.3%

## CC(C)Oc1cc(-n2nc(C(C)(C)C)oc2=O)c(Cl)cc1Cl [oxadiazon]
Lithospermum arvense; B 90 g a.i./ha
  Control effect (%) of B applied alone (B): 24.3%

## CCOc1cc(Oc2ccc(C(F)(F)F)cc2Cl)ccc1[N+](=O)[O-] [oxyfluorfen]
Lithospermum arvense; B 60 g a.i./ha
  Control effect (%) of B applied alone (B): 31.5%

## COC(=O)Nc1cccc(OC(=O)Nc2cccc(C)c2)c1 [phenmedipham]
Eclipta prostrate; Eclipta
  pest or weed control at 300 g/ha: 20.8%

## Nc1c(Cl)c(Cl)nc(C(=O)O)c1Cl [picloram]
Veronica didyma Tenore; Veronica polita, foliar, B 300 g a.i./ha, read-out: Control effect (%) of B applied alone (B)
  pest or weed control at 300 g/ha: 43.6%

## CCC(=O)Nc1ccc(Cl)c(Cl)c1 [propanil]
Eclipta prostrate; Eclipta prostrate, foliage, B 300 g a.i./ha
  pest or weed control at 300 g/ha: 21.7%

## C#CCN(C)c1c(C#N)cnn1-c1nn2c(c1Cl)CCCC2 [pyraclonil]
Lithospermum arvense; B 75 g a.i./ha
  Control effect (%) of B applied alone (B): 37.9%

## CC(C)N(C)S(=O)(=O)NC(=O)c1cc(-n2c(=O)cc(C(F)(F)F)n(C)c2=O)c(F)cc1Cl [saflufenacil]
Lithospermum arvense; B 0.75 g a.i./ha
  Control effect (%) of B applied alone (B): 39.7%

## CCNc1nc(Cl)nc(NC(C)(C)C)n1 [terbuthylazine]
Eclipta prostrate; Eclipta prostrate, foliage, B 150 g a.i./ha
  pest or weed control at 150 g/ha: 31.7%

## O=C(O)COc1nc(Cl)c(Cl)cc1Cl [triclopyr]
Veronica didyma Tenore; Veronica polita, foliar, B 90 g a.i./ha, read-out: Control effect (%) of B applied alone (B)
  pest or weed control at 90 g/ha: 34.2%
